The record followed here is US6638531B1, “Antimicrobial peptides” (priority 1998, dated 2003).

Where two headings read alike, the source gives them in different places. Marks after values point to notes of the source that are not given here. Where no end group is shown, it is not given here.

Holding throughout (type): cell-based
Data set [1] concerns Candida albicans. The data set is described as follows: Growth inhibition on agar with spotted peptide. On the set-up: key: “+” designates full growth inhibition; “+/−” designates partial inhibition; “−” signifies no inhibition. Conditions: C. albicans on agar, 10 μg peptide spotted. How it is done:
(§1) The growth of the yeast Candida albicans, Torulopsis glabrata and meticillin-resistant Staphylococcus aureus (MRSA) was tested by growing them on agar on which 10 μg of each of the peptides according to the invention was spotted. […] “+” designates full growth inhibition, “+/−” designates partial inhibition and “−” signifies no inhibition.

Data set [2] concerns Torulopsis glabrata. The data set is described as follows: Growth inhibition on agar with spotted peptide. On the set-up: key: “+” designates full growth inhibition; “+/−” designates partial inhibition; “−” signifies no inhibition. Conditions: T. glabrata on agar, 10 μg peptide spotted. How it is done:
as §1

In data set [3] the test system is Lactobacillus rhamnosus. The data set is described as follows: Inhibition of lactic acid production. Conditions: L. rhamnosus; 1 hour in 10 mM PPB with glucose. How it is done:
(§2) All peptides according to the invention were tested for their capacity to inhibit the lactic acid production of the bacteria Streptococcus sanguis, Streptococcus mutans, Streptococcus salivarius and Lactobacillus rhamnosus. The formation of lactic acid is a measure for the metabolic activity. For this purpose cultures of bacteria cells were incubated for 1 hour in 10 mM PPB with 0.5 glucose and different concentrations of the peptides. The formation of lactic acid was monitored by means of spectrophotometry.

Data set [4] concerns Streptococcus mutans. The data set is described as follows: Inhibition of lactic acid production. Conditions: S. mutans; 1 hour in 10 mM PPB with glucose. How it is done:
as §2

In data set [5] the test system is Streptococcus salivarius. The data set is described as follows: Inhibition of lactic acid production. Conditions: S. salivarius; 1 hour in 10 mM PPB with glucose. The method, then:
as §2

The subject of data set [6] is Streptococcus sanguis. The data set is described as follows: Inhibition of lactic acid production. Conditions: S. sanguis; 1 hour in 10 mM PPB with glucose. How it is done: as §2
The test system of data set [7] is meticillin-resistant Staphylococcus aureus (MRSA). The data set is described as follows: Growth inhibition on agar with spotted peptide. More on the design: key: “+” designates full growth inhibition; “+/−” designates partial inhibition; “−” signifies no inhibition. Conditions: 10 μg peptide spotted. The method, then:
as §1

Data set [8] deals with artificial oral biofilm of seven oral aerobic and anaerobic types of bacteria. The data set is described as follows: Antibacterial activity in an artificial oral biofilm. Conditions: for inhibition at 35 ppm / inhibition at 200 ppm: po; for % reduction in viability counts, total Gram-negative average (s.d.) / % reduction in viability counts, total aerobic average / % reduction in viability counts, total anaerobic average: 0.5 h, pH 7. The method, then: An artificial oral biofilm was made by placing hydroxyapatite discs for five days in a continuous culture system of seven oral aerobic and anaerobic types of bacteria (Streptococcus mutans, Streptococcus sanpuis, Streptococcus salivarius, Actinomyces naeslundii, Veillonella parvula, Prevotella intermedia and Fusobacterium nucleatum) The discs with the biofilm formed thereon were subsequently incubated for half an hour with different concentrations of peptide in 10 mM potassium phosphate buffer, pH 7.0. The biofilm was then sonicated from the discs, diluted in PBS and plated out on semi-selective agar plates. The total […] were counted (Streptococci+Actinomyces) on aerobic incubated blood agar plates, the total Gram-negative counts (Veilonella, Fusobacterium and Prevotella) on vancomycin-containing plates and the total counts on the anaerobic incubated blood agar.

Data set [9] concerns bacteria collected from plaque. The data set is described as follows: Antimicrobial activity on oral bacteria. Conditions: po. The source says: (§3) In order to determine whether the peptides according to the invention are also active against bacteria such as are encountered in the mouth, bacteria were collected from saliva and plaque. Saliva was shaken on a vortex mixer and centrifuged.

The test system of data set [10] is bacteria collected from saliva. The data set is described as follows: Antimicrobial activity on oral bacteria. Conditions: po.
Text: as §3

In data set [11] the test system is bacteria from cultured plaque. The data set is described as follows: Antimicrobial activity on oral bacteria. Conditions: po.
Text: as §3

In data set [12] the test system is bacteria from disrupted plaque. The data set is described as follows: Antimicrobial activity on oral bacteria. Conditions: po.
Text: as §3

Where [13] appears, read: read-out: % reduction in viability counts, total Gram-negative average (s.d.).
Where [14] appears, read: read-out: % reduction in viability counts, total aerobic average.
Where [15] appears, read: read-out: % reduction in viability counts, total anaerobic average.
[16] abbreviates: read-out: % reduction in viability counts, total Gram-negative average.

As for “KRLFKELLFSLRKY-amide (KRLFKELLFSLRKY-NH2) [peptide 13]”, the growth inhibition result in [1] and in [2] was “+” in each case. Moreover, the “inhibition of lactic acid production” value in [3], in [4], in [5] and in [6] was “+ (“+” designates full inhibition at 4-20 μg/ml peptide)” in each case.
Turning to KRLFKELLKSLRKY [peptide 6], the growth inhibition result in data set [1] and in data set [2] was “+” throughout. Further, the “inhibition of lactic acid production” value in data set [3], in data set [4], in data set [5] and in [6] was “+ (“+” designates full inhibition at 4-20 μg/ml peptide)” throughout.
Turning to LLLFLLKKRKKRKY [peptide 11], the growth inhibition entry in data set [1], in [2] and in data set [7] was “+” throughout. The “inhibition of lactic acid production” value in data set [3], in [4], in [5] and in data set [6] was “+ (“+” designates full inhibition at 4-20 μg/ml peptide)” each time.
For “KRLFKELKFSLRKY-amide (KRLFKELKFSLRKY-NH2) [peptide 12]”, the growth inhibition result in data set [1] and in [2] was “+” throughout. Moreover, the “inhibition of lactic acid production” value in [3], in data set [4], in data set [5] and in [6] was “+ (“+” designates full inhibition at 4-20 μg/ml peptide)” throughout.
Consider `[H]/N=C(\N/C(=N/[H])NCCCCCCNC(=N)NC(=N)Nc1ccc(Cl)cc1)Nc1ccc(Cl)cc1` [Chlorhexidine], for which the inhibition at 35 ppm in data set [8] (setting [13]) turned out to be 68.3%; in data set [8] (setting [14]) it was 39%; in data set [8] (setting [15]), 38.4%. Besides, the inhibition at 200 ppm in [8] (setting [13]), in data set [8] (setting [14]) and in data set [8] (setting [15]) was 99.9% in each case. The inhibition at 50 ppm was 99.7% in data set [9] (setting [16]); 99.7% in data set [9] (setting [14]); 99.7% in data set [9] (setting [15]); over 99.9% in data set [10] (setting [16]); over 99.9% in [10] (setting [14]); over 99.9% in [10] (setting [15]). Moreover, the inhibition at 50 ppm is over 99.9% in data set [11] (setting [16]); over 99.9% in data set [11] (setting [14]); over 99.9% in data set [11] (setting [15]); over 99.9% in [12] (setting [16]); 99.7% in [12] (setting [14]); 99% in data set [12] (setting [15]).
On to OOLFOELLOSLOOY [peptide 8], for which the growth inhibition result in data set [1] and in data set [2] was “+” each time. For the same molecule, the “inhibition of lactic acid production” value in [3], in data set [4], in data set [5] and in [6] was “+ (“+” designates full inhibition at 4-20 μg/ml peptide)” in each case.
Take “KRKFHEKHHSHRGY [dh-5, C-terminal part of histatin 5, reference compound]”: the growth inhibition entry in data set [1], in data set [2] and in [7] was “−” each time. Moreover, the “inhibition of lactic acid production” value in data set [3], in data set [4], in data set [5] and in data set [6] was “− (“−” signifies no inhibition of lactic acid formation at >100 μg/ml peptide)” throughout.
Take OOLFOELOOSLOOY [peptide 7]: the growth inhibition result in [1] and in data set [2] was “+” throughout. Further, the “inhibition of lactic acid production” value in data set [3], in data set [4], in [5] and in data set [6] was “+ (“+” designates full inhibition at 4-20 μg/ml peptide)” each time.
As for KRLFKELLFSLRKY [peptide 4], the figures for the growth inhibition entry in [1], in data set [2] and in data set [7] were “+”, “+” and “+/−”, respectively. The “inhibition of lactic acid production” value in data set [3], in data set [4], in [5] and in data set [6] was “+ (“+” designates full inhibition at 4-20 μg/ml peptide)” throughout.
Consider KRLFKELKKSLRKY [peptide 5], for which the growth inhibition result in data set [1] and in data set [2] was “+” throughout. The “inhibition of lactic acid production” value in data set [3], in data set [4], in [5] and in [6] was “+ (“+” designates full inhibition at 4-20 μg/ml peptide)” each time.
Regarding “KRLFKKLKFSLRKY-OH [peptide 9, KRLFKKLKFSLRKY]”, the growth inhibition result in data set [1], in data set [2] and in data set [7] was “+” in each case. Moreover, the “inhibition of lactic acid production” value in data set [3], in data set [4], in data set [5] and in data set [6] was “+ (“+” designates full inhibition at 4-20 μg/ml peptide)” in each case. The “% reduction in viability counts, total Gram-negative average (s.d.)” value in [8] (10 μg/ml) is 51.0 (32.0)* %; in data set [8] (100 μg/ml) it was 30.6 (104.4)* %; in data set [8] (250 μg/ml), 53.3 (70.7) %; in [8] (500 μg/ml), 96.9 (0.85)* %. For the same molecule, the “% reduction in viability counts, total aerobic average” value in data set [8] (10 μg/ml) is −67.4%; in data set [8] (100 μg/ml) it was 78.7%; in data set [8] (250 μg/ml), 64.8%; in data set [8] (500 μg/ml) it was 96.6%. Moreover, the “% reduction in viability counts, total anaerobic average” value in [8] (10 μg/ml) is recorded as −66.2%; in data set [8] (100 μg/ml), 51.2%; in data set [8] (250 μg/ml), 61.2%; in [8] (500 μg/ml) it was 93.2%.
